The results in this text go back to publication PMC5966831 (Biochemistry, 2013).

Broadly, the Kd is the concentration at which binding is half-saturated. Usually Tm stands for the temperature at the midpoint of the melting transition.

Read-outs that look alike come from different tables or passages of the source.

In data set [1] the target is T1, AFF210 (Caldanaerobacter subterraneus, UniProt Q8RD41, C137S/D254S/INS245C/L167D). As to the kind of experiment: Equilibrium fluorescence. The class given is binding.
Data set [2] concerns the target T1, AFF210. The class given is binding. The conditions noted are these: SD, n = 3.
Data set [3] has as its target T2, AFF70 (Caldanaerobacter subterraneus, UniProt Q8RD41, C137S/F53A/F54A/INS105C/L167D). The class given is binding. The note with it: SD, n = 3.
In the next data set the target is N′210 (Caldanaerobacter subterraneus, UniProt Q8RD41, C137S/L167D). It counts as binding. The note with it: SD, n = 3.
Data set [4] addresses T3, AFF186 (Caldanaerobacter subterraneus, UniProt Q8RD41, C137S/D254S/INS221C/L167D). The class given is binding. The conditions noted are these: SD, n = 3.
In another data set the target is N′60 (Caldanaerobacter subterraneus, UniProt Q8RD41, C137S/L167D). The class given is binding. The conditions noted are these: SD, n = 3.
Another data set addresses N′70 (Caldanaerobacter subterraneus, UniProt Q8RD41, C137S/L167D). It counts as binding. The note with it: SD, n = 3.
The target of a further data set is N′186 (Caldanaerobacter subterraneus, UniProt Q8RD41, C137S/L167D). The class given is binding. The note with it: SD, n = 3.
The target in data set [5] is T2, AFF70. In words: Equilibrium fluorescence. The class given is binding.
Data set [6] has as its target T3, AFF186. In words: Equilibrium fluorescence. The class given is binding.
A short description of data set [7]: Thermal denaturation monitored by circular dichroism. The note with it: E. coli RBP and its permutants, apo forms, Figure S7. The class given is physicochemical. A general note: Circular dichroism is widely used to follow secondary structure.

Turning to `OC1OC[C@@H](O)[C@@H](O)[C@H]1O` (stereo partly drawn) [ribose, D-ribose], the equilibrium dissociation constant (Kd) at AFF210 [1] was 4200 nM; on AFF210 [2], 26.1 ± 1.5 nM; at AFF70 [3], 46.6 ± 5.5 nM; at N′210, 21.6 ± 1.4 nM; on AFF186 [4] it was 58.8 ± 0.17 nM; at N′60, 21.3 ± 1.1 nM. Also, the Kd came to 2740 ± 240 nM at N′70, 38.1 ± 0.4 nM at N′186, 4200 nM on AFF70 [5] and 12300 nM at AFF186 [6].

B1: E. coli RBP: Escherichia coli ribose binding protein (protein, UniProt P02925 26-296, looked up)
Ribose import binding protein …: KDTIALVVSTLNNPFFVSLKDGAQKEADKLGYNLVVLDSQNNPAKELANVQDLTVRGTKILLINPTDSDAVGNAVKMANQANIPVITLDRQATKGEVVSHIASDNVLGGKIAGDYIAKKAGEGAKVIELQGIAGTSAARERGEGFQQAVAAHKFNVLASQPADFDRIKGLNVMQNLLTAHPDVQAVFAQNDEMALGALRALQTAGKSDVMVVGFDGTPDGEKAVNDGKLAATIAQLPDQIGAKGVETADKVLKGEKVQAKYPVDLKLVVKQ
As to B1, in data set [7], the Tm was 55 °C.
